Laboratory results as given in patent publication US20250186437A1, “CARBOLINE COMPOUNDS AND USE THEREOF” (PTC Therapeutics, Inc., priority 2021, published 2025).

What follows are compounds tested on MOLM-13 cells (assay: MOLM-13 Cell Proliferation Assay (indicator of DHODH inhibition)). Conditions: Homo sapiens, 72 Hours of culture, CellTiter-Glo, no uridine.
Format: cell-based
Summary of the method: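 Low-passage MOLM-13 cells (10^4/well) in RPMI 1640 + 10% FBS exposed to compound (0.5% DMSO final) for 72 h at 37 °C, 5% CO2. Viability read by CellTiter-Glo luminescence; growth reflects de novo pyrimidine synthesis dependent on DHODH.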

| Compound | IC50 |
| --- | --- |
| Fc1cc(Br)ccc1C1c2[nH]c3ccc(Cl)cc3c2CCN1c1nccc(C(F)(F)F)n1 (stereo not drawn) [Compound 268, 1-(4-bromo-2-fluorophenyl)-6-chloro-2-[4-(trifluoromethyl)pyrimidin-2-yl]-2,3,4,9-tetrahydro-1H-pyrido[3,4-b]indole] | 0.2 nM |
| FC(F)(F)c1ccnc(N2CCc3c([nH]c4ccc(Cl)cc34)C2c2ccc(-n3cnnc3)cc2)n1 (stereo not drawn) [Compound 269, 6-chloro-1-[4-(4H-1,2,4-triazol-4-yl)phenyl]-2-[4-(trifluoromethyl)pyrimidin-2-yl]-2,3,4,9-tetrahydro-1H-pyrido[3,4-b]indole] | 98.2 nM |
| Fc1c(Br)ccc(C2c3[nH]c4ccc(Cl)cc4c3CCN2c2nccc(C(F)(F)F)n2)c1F (stereo not drawn) [Compound 270, 1-(4-bromo-2,3-difluorophenyl)-6-chloro-2-[4-(trifluoromethyl)pyrimidin-2-yl]-2,3,4,9-tetrahydro-1H-pyrido[3,4-b]indole] | 0.3 nM |
| Fc1cc(-n2ccnc2)ccc1C1c2[nH]c3ccc(Cl)cc3c2CCN1c1ncccn1 (stereo not drawn) [Compound 274, 6-chloro-1-[2-fluoro-4-(1H-imidazol-1-yl)phenyl]-2-(pyrimidin-2-yl)-2,3,4,9-tetrahydro-1H-pyrido[3,4-b]indole] | 58.5 nM |
| Fc1cc(-n2ccnc2)ccc1C1c2[nH]c3ccc(Cl)cc3c2CCN1c1nccc(C(F)(F)F)n1 (stereo not drawn) [Compound 275, 6-chloro-1-[2-fluoro-4-(1H-imidazol-1-yl)phenyl]-2-[4-(trifluoromethyl)pyrimidin-2-yl]-2,3,4,9-tetrahydro-1H-pyrido[3,4-b]indole] | 7.3 nM |
| Cc1cc(O)c2[nH]c3c(c2c1)CCN(c1nccc(C(F)(F)F)n1)C3c1ccc(C)c(F)c1F (stereo not drawn) [Compound 276, 1-(2,3-difluoro-4-methylphenyl)-6-methyl-2-[4-(trifluoromethyl)pyrimidin-2-yl]-2,3,4,9-tetrahydro-1H-pyrido[3,4-b]indol-8-ol] | 0.6 nM |
| Fc1cc(N2CCOCC2)ccc1C1c2[nH]c3ccc(Cl)cc3c2CCN1c1nccc(C(F)(F)F)n1 (stereo not drawn) [Compound 277, 6-chloro-1-[2-fluoro-4-(morpholin-4-yl)phenyl]-2-[4-(trifluoromethyl)pyrimidin-2-yl]-2,3,4,9-tetrahydro-1H-pyrido[3,4-b]indole] | 5.4 nM |
| Fc1c(C2c3[nH]c4ccc(Cl)cc4c3CCN2c2nccc(C(F)(F)F)n2)ccc(N2CCOCC2)c1F (stereo not drawn) [Compound 279, 6-chloro-1-[2,3-difluoro-4-(morpholin-4-yl)phenyl]-2-[4-(trifluoromethyl)pyrimidin-2-yl]-2,3,4,9-tetrahydro-1H-pyrido[3,4-b]indole] | 5.1 nM |
| CCCCOC(=O)c1ccnc(N2CCc3c([nH]c4ccc(Cl)cc34)C2c2ccc(C)cc2)n1 (stereo not drawn) [Compound 280, butyl 2-[6-chloro-1-(4-methylphenyl)-1,3,4,9-tetrahydro-2H-pyrido[3,4-b]indol-2-yl]pyrimidine-4-carboxylate] | 4.1 nM |
| CCCCOC(=O)c1ccnc(N2CCc3c([nH]c4ccc(Cl)cc34)C2c2ccc(C)c(F)c2F)n1 (stereo not drawn) [Compound 281, butyl 2-[6-chloro-1-(2,3-difluoro-4-methylphenyl)-1,3,4,9-tetrahydro-2H-pyrido[3,4-b]indol-2-yl]pyrimidine-4-carboxylate] | 1.4 nM |
| Cc1nc(C)nc(N2CCc3c([nH]c4ccc(Cl)cc34)C2c2ccc(Br)c(F)c2F)n1 (stereo not drawn) [Compound 283, 1-(4-bromo-2,3-difluorophenyl)-6-chloro-2-(4,6-dimethyl-1,3,5-triazin-2-yl)-2,3,4,9-tetrahydro-1H-pyrido[3,4-b]indole] | 0.6 nM |
| Fc1c(C2c3[nH]c4ccc(Cl)cc4c3CCN2c2nccc(C(F)(F)F)n2)ccc(-n2ccnc2)c1F (stereo not drawn) [Compound 285, 6-chloro-1-[2,3-difluoro-4-(1H-imidazol-1-yl)phenyl]-2-[4-(trifluoromethyl)pyrimidin-2-yl]-2,3,4,9-tetrahydro-1H-pyrido[3,4-b]indole] | 2.8 nM |
| Cc1ccc(C2c3[nH]c4ccc(Cl)cc4c3CCN2c2nc(C)cc(C)n2)cc1 (stereo not drawn) [Compound 286, 6-chloro-2-(4,6-dimethylpyrimidin-2-yl)-1-(4-methylphenyl)-2,3,4,9-tetrahydro-1H-pyrido[3,4-b]indole] | 4.1 nM |
| Cc1ccc(C2c3[nH]c4ccc(-n5nccn5)cc4c3CCN2c2nccc(C(F)(F)F)n2)cc1 (stereo not drawn) [Compound 287, 1-(4-methylphenyl)-6-(2H-1,2,3-triazol-2-yl)-2-[4-(trifluoromethyl)pyrimidin-2-yl]-2,3,4,9-tetrahydro-1H-pyrido[3,4-b]indole] | 2.9 nM |
| Cc1nc(Cl)nc(N2CCc3c([nH]c4ccc(Cl)cc34)C2c2cnc(N3CCOCC3)nc2)n1 (stereo not drawn) [Compound 289, 6-chloro-2-(4-chloro-6-methyl-1,3,5-triazin-2-yl)-1-[2-(morpholin-4-yl)pyrimidin-5-yl]-2,3,4,9-tetrahydro-1H-pyrido[3,4-b]indole] | 27.1 nM |
| Cc1nc(N(C)C)nc(N2CCc3c([nH]c4ccc(Cl)cc34)C2c2cnc(N3CCOCC3)nc2)n1 (stereo not drawn) [Compound 290, 4-{6-chloro-1-[2-(morpholin-4-yl)pyrimidin-5-yl]-1,3,4,9-tetrahydro-2H-pyrido[3,4-b]indol-2-yl}-N,N,6-trimethyl-1,3,5-triazin-2-amine] | 19.7 nM |
| C=Cc1ccc2[nH]c3c(c2c1)CCN(c1nccc(C(F)(F)F)n1)C3c1ccc(C)cc1 (stereo not drawn) [Compound 291, 6-ethenyl-1-(4-methylphenyl)-2-[4-(trifluoromethyl)pyrimidin-2-yl]-2,3,4,9-tetrahydro-1H-pyrido[3,4-b]indole] | 4.4 nM |
| Cc1ccc(C2c3[nH]c4c(N)cc(Cl)cc4c3CCN2c2nc(C)nc(C)n2)cc1 (stereo not drawn) [Compound 292, 6-chloro-2-(4,6-dimethyl-1,3,5-triazin-2-yl)-1-(4-methylphenyl)-2,3,4,9-tetrahydro-1H-pyrido[3,4-b]indol-8-amine] | 12.1 nM |
| COc1nc(C)nc(N2CCc3c([nH]c4ccc(Cl)cc34)C2c2cnc(N3CCOCC3)nc2)n1 (stereo not drawn) [Compound 295, 6-chloro-2-(4-methoxy-6-methyl-1,3,5-triazin-2-yl)-1-[2-(morpholin-4-yl)pyrimidin-5-yl]-2,3,4,9-tetrahydro-1H-pyrido[3,4-b]indole] | 14.7 nM |
| Cc1nc(N2CCOCC2)nc(N2CCc3c([nH]c4ccc(Cl)cc34)C2c2cnc(N3CCOCC3)nc2)n1 (stereo not drawn) [Compound 296, 6-chloro-2-[4-methyl-6-(morpholin-4-yl)-1,3,5-triazin-2-yl]-1-[2-(morpholin-4-yl)pyrimidin-5-yl]-2,3,4,9-tetrahydro-1H-pyrido[3,4-b]indole] | 16.2 nM |
| CN(C)c1ncnc(N2CCc3c([nH]c4ccc(Cl)cc34)C2c2cnc(N3CCOCC3)nc2)n1 (stereo not drawn) [Compound 297, 4-{6-chloro-1-[2-(morpholin-4-yl)pyrimidin-5-yl]-1,3,4,9-tetrahydro-2H-pyrido[3,4-b]indol-2-yl}-N,N-dimethyl-1,3,5-triazin-2-amine] | 78 nM |
| FC(F)(F)c1ccnc(N2CCc3c([nH]c4ccc(Br)cc34)C2c2cnc(N3CCOCC3)nc2)n1 (stereo not drawn) [Compound 298, 6-bromo-1-[2-(morpholin-4-yl)pyrimidin-5-yl]-2-[4-(trifluoromethyl)pyrimidin-2-yl]-2,3,4,9-tetrahydro-1H-pyrido[3,4-b]indole] | 1.2 nM |
| Cc1nc(C)nc(N2CCc3c([nH]c4ccc(Br)cc34)C2c2cnc(N3CCOCC3)nc2)n1 (stereo not drawn) [Compound 299, 6-bromo-2-(4,6-dimethyl-1,3,5-triazin-2-yl)-1-[2-(morpholin-4-yl)pyrimidin-5-yl]-2,3,4,9-tetrahydro-1H-pyrido[3,4-b]indole] | 6.8 nM |
| Cc1nc(C)nc(N2CCc3c([nH]c4ccc(-n5nccn5)cc34)C2c2cnc(N3CCOCC3)nc2)n1 (stereo not drawn) [Compound 300, 2-(4,6-dimethyl-1,3,5-triazin-2-yl)-1-[2-(morpholin-4-yl)pyrimidin-5-yl]-6-(2H-1,2,3-triazol-2-yl)-2,3,4,9-tetrahydro-1H-pyrido[3,4-b]indole] | 20.5 nM |
| FC(F)(F)c1ccnc(N2CCc3c([nH]c4ccc(-n5cccn5)cc34)C2c2cnc(N3CCOCC3)nc2)n1 (stereo not drawn) [Compound 301, 1-[2-(morpholin-4-yl)pyrimidin-5-yl]-6-(1H-pyrazol-1-yl)-2-[4-(trifluoromethyl)pyrimidin-2-yl]-2,3,4,9-tetrahydro-1H-pyrido[3,4-b]indole] | 23.9 nM |
| COc1ccc2[nH]c3c(c2c1)CCN(c1nccc(C(F)(F)F)n1)C3c1cnc(N2CCOCC2)nc1 (stereo not drawn) [Compound 302, 6-methoxy-1-[2-(morpholin-4-yl)pyrimidin-5-yl]-2-[4-(trifluoromethyl)pyrimidin-2-yl]-2,3,4,9-tetrahydro-1H-pyrido[3,4-b]indole] | 7 nM |
| FC(F)(F)c1ccnc(N2CCc3c([nH]c4ccc(Cl)cc34)C2c2ccc(N3CCOCC3)nc2)n1 (stereo not drawn) [Compound 303, 6-chloro-1-[6-(morpholin-4-yl)pyridin-3-yl]-2-[4-(trifluoromethyl)pyrimidin-2-yl]-2,3,4,9-tetrahydro-1H-pyrido[3,4-b]indole] | 2.5 nM |
| Cc1nc(C)nc(N2CCc3c([nH]c4c(N)cc(Cl)cc34)C2c2ccc(C)c(F)c2F)n1 (stereo not drawn) [Compound 304, 6-chloro-1-(2,3-difluoro-4-methylphenyl)-2-(4,6-dimethyl-1,3,5-triazin-2-yl)-2,3,4,9-tetrahydro-1H-pyrido[3,4-b]indol-8-amine] | 93.9 nM |
| Cc1ccc(C2c3[nH]c4ccc(Cl)cc4c3CCN2c2nccc(N(C)C)n2)c(F)c1F (stereo not drawn) [Compound 306, 2-[6-chloro-1-(2,3-difluoro-4-methylphenyl)-1,3,4,9-tetrahydro-2H-pyrido[3,4-b]indol-2-yl]-N,N-dimethylpyrimidin-4-amine] | 20 nM |
| Cc1ccc(C2c3[nH]c4ccc(Cl)cc4c3CCN2c2nccc(N(C)C)n2)cc1 (stereo not drawn) [Compound 307, 2-[6-chloro-1-(4-methylphenyl)-1,3,4,9-tetrahydro-2H-pyrido[3,4-b]indol-2-yl]-N,N-dimethylpyrimidin-4-amine] | 99.2 nM |
